From patent US7429374B2, “Process for the measurement of the potency of glatiramer acetate” (Teva Pharmaceutical Industries, Ltd., priority 2001, dated 2008)

How the values were obtained:
GA RS-specific T cells = assay: In vitro potency test: IL-2 secretion by GA RS-specific LN cells, ELISA, % potency relative to GA RS; assay type: cell-based, female (SJLXBALB/C)F1 mice; settings: for Response of GA RS-specific T cells (IL-2 secretion), in words: primary culture of LN cells from mice immunized with 250 μg GA RS in CFA; for % Potency: specificity of GA RS-specific LN cells, antigens incubated overnight
Experimental: Mice were immunized with 250 μg GA RS in CFA. GA RS was produced as described in U.S. Pat. No. 5,800,808 or PCT International Publication No. WO 00/05250. The GA RS was chosen based on the chemical and biological properties being in the midrange of Copaxone® as described above. After 9-11 days, a primary culture of LN cells was prepared, and the cells were incubated with various concentrations of GA RS and with test samples. Following 18-21 hours of incubation at 37° C. in a humidified CO2 incubator, the culture media were collected and the level of IL-2 was measured by ELISA. The T-cell response to each DS batch were tested at two concentrations (within the linear range), and the % potency of the DS batch was calculated relative to that of the GA RS batch.
The GA RS emulsion was transferred into an insulin syringe. Then, 100 μl of the emulsion (250 μg GA per mouse) were injected into four footpads of each naive mouse (about 25 μl into each footpad). The immunized mice were used for the in vitro test 9-11 days following immunization.
The UV lamp was turned on 20 minutes before commencing work in the laminar hood and turned off when work began. Prior to placing any reagents under the hood, the working surface was cleaned with a 70% ethanol solution. Enriched DCCM1 medium was prepared. The enriched DCCM1 and the RPMI medium were pre-warmed at 37° C. prior to use. The mice were sacrificed by cervical dislocation. Each mouse was placed on its back and fastened to a support platform. The abdomen was sprayed with 70% alcohol and a middle incision was made (a 2 cm-long incision was usually sufficient). The skin was intersected towards the hind legs and LN was located from the hind and forelegs. The LN was transferred into a sterile petri dish containing about 5 ml sterile RPMI medium and the LN cells were teased out by a sterile syringe plunger. The sterile syringe was used to collect the cells' suspension from the petri dish (the collection of tissue debris was avoided by using sterile needles). The cells' suspension were transferred into a 50 ml sterile tube.
The cells were centrifuged at 200×g for 10 minutes at room temperature. The cells were re-suspended to a density of 1×10^7 cells/ml with enriched DCCM1.
The in vitro bioassay was performed in a 24-well, flat-bottomed tissue culture test plate at a final volume of 1 ml.
About 10-20 mg of, GA DS from the batch to be tested was weighed accurately and dissolved with ddH2O to 1.2 mg/ml. The OD minus blank of the solution was measured at 275 nm. The OD of the sample was adjusted to approx. 1.03 with ddH2O to obtain a stock solution of 1 mg/ml of GA. The stock solution of 100 μg/ml was prepared with enriched DCCM1 and filtered through a 0.2μ cellulose acetate filter. The stock solution was diluted to 10 and 20 μg/ml as described in Table 2 for the RS batch.
0.5 ml of each GA RS dilution, thus the final concentrations of GA RS in the wells were 25, 15, 10, 5, 2.5 and 1 μg/ml.
0.5 ml of each sample dilution, thus the final concentrations of the test sample in the well were 5 and 10 μg/ml.
The density of the cells was changed depending upon their response to GA. The cultures were kept at 37° C. in a humidified 5% CO2 incubator for 18-21 hrs. The plate was centrifuged at 200×g for 10 minutes at room temperature. The supernatants were collected into cryotubes. The supernatants were divided into working aliquots to avoid repeated freezing/thawing of the samples. The supernatants were stored at −20° C. for up to one week. The hood was cleaned with 70% ethanol solution and dried with Kim wipes. The gloves were removed and the hands were immediately washed with disinfectant.
All samples were tested in triplicate. […]

[1] = tested on: experimental autoimmune encephalomyelitis (EAE); settings: various animal species (Lando et al., 1979; Aharoni, 1993); cited from earlier work
EAE = settings: 250 μg/mouse of GA in CFA; this mouse strain
Experimental: The control group in this experiment was injected with CFA alone. Ten days following immunization, LN cells were removed from the both groups of mice.

[2] = tested on: exacerbating-remitting multiple sclerosis; settings: daily subcutaneous injections (Johnson, 1987); cited from earlier work

OC[C@@H](O)[C@@H](O)[C@H](O)[C@H](O)CO [mannitol]
Response of GA RS-specific T cells (IL-2 secretion), in words (GA RS-specific T cells): did not affect or interfere

L-glutamic acid polymer with L-alanine, L-lysine and L-tyrosine, acetate (salt) [GA]
suppression of EAE [1]: suppress
blocking of EAE (EAE): at least 80%
progression of disability [2]: slow progression of disability
relapse rate [2]: reduce the relapse rate

Lysozyme: a non-relevant basic protein
Response of GA RS-specific T cells (IL-2 secretion), in words (GA RS-specific T cells): not recognized
% Potency (GA RS-specific T cells): 0%

MBP pp.87-99: the MBP immunodominant peptide pp. 87-99 (an encephalitogenic peptide) (SRPHLIRLFSRDA; UniProt P02686 87-99, looked up, fragment)
Response of GA RS-specific T cells (IL-2 secretion), in words (GA RS-specific T cells): did not respond
% Potency (GA RS-specific T cells): 0%

B1: Human MBP: human MBP (myelin basic protein) (protein, UniProt P02686 1-304, looked up)
Myelin basic protein: MGNHAGKRELNAEKASTNSETNRGESEKKRNLGELSRTTSEDNEVFGEADANQNNGTSSQDTAVTDSKRTADPKNAWQDAHPADPGSRPHLIRLFSRDAPGREDNTFKDRPSESDELQTIQEDSAATSESLDVMASQKRPSQRHGSKYLATASTMDHARHGFLPRHRDTGILDSIGRFFGGDRGAPKRGSGKDSHHPARTAHYGSLPQKSHGRTQDENPVVHFFKNIVTPRTPPPSQGKGRGLSLSRFSWGAEGQRPGFGYGGRASDYKSAHKGFKGVDAQGTLSKIFKLGGRDSRSGSPMARR
Response of GA RS-specific T cells (IL-2 secretion), in words (GA RS-specific T cells): did not respond
% Potency (GA RS-specific T cells): 0%
